# Test results published in patent US9834521B2, “Choline kinase inhibitors” (ARIAD Pharmaceuticals, Inc., priority 2013, dated 2017).
# Target: T1, truncated form of human Choline kinase α1 that includes residues 75-457 (Homo sapiens, UniProt P35790)
# T1 construct: made in house
# Experiment: Kinase Assay, coupled (ATP regeneration) LDH/PK assay, NADH absorbance
# Format: biochemical
# Settings: Examples designated with an asterisk (*): version 1 of the Kinase Assay, 200 nM enzyme; read-out: IC50
# Method: Absorbance of NADH (340 nm) was measured over 30 min using a SpectraMax M5 (Molecular Devices). Initial reaction velocity (ΔA340/Δt) was calculated and plotted as a function of inhibitor concentration in a 2-fold dilution series. IC50 values were obtained by fitting the relative velocities to a dose-response model.
# T1 sequence (P35790 75-457): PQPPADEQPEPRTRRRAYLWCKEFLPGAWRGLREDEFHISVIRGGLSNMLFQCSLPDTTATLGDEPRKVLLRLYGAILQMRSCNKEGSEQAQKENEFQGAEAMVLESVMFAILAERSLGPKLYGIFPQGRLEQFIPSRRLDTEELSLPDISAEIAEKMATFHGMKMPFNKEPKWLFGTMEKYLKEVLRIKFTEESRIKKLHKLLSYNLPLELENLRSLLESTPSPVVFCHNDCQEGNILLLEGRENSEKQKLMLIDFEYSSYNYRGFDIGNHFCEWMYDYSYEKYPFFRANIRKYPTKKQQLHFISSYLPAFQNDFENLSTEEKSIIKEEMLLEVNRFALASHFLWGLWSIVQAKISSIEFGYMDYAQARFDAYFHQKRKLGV
row,IC50,Compound
1,< 50 µM,"CN1CCCN(Cc2ccc(-c3ccc(F)cc3)cc2)CC1 [Example 135, 1-((4′-fluoro-[1,1′-biphenyl]-4-yl)methyl)-4-methyl-1,4-diazepane]"
2,< 50 µM,"CN1CCCN(Cc2ccc(-c3cccc4ccccc34)cc2)CC1 [Example 136, 1-methyl-4-(4-(naphthalen-1-yl)benzyl)-1,4-diazepane]"
3,< 50 µM,"CN1CCCN(Cc2ccc(-c3ccccn3)cc2)CC1 [Example 141, 1-methyl-4-(4-(pyridin-2-yl)benzyl)-1,4-diazepane]"

# Same assay, conditions: Examples not designated with an asterisk; footnote prints version 1 of the Kinase Assay; read-out: IC50
row,IC50,Compound
1,< 0.5 µM,"CN1CCCN(Cc2ccc(-c3ccc(C(=O)N4CCCN(C)CC4)cc3-c3ccc(S(C)(=O)=O)cc3)c(C#N)c2)CC1 [Example 75, 4-((4-methyl-1,4-diazepan-1-yl)methyl)-4′-(4-methyl-1,4-diazepane-1-carbonyl)-4″-(methylsulfonyl)-[1,1′1:2′,1″-terphenyl]-2-carbonitrile]"
2,< 0.5 µM,"CN1CCCN(Cc2ccc(-c3ccc(C(N)=O)cc3F)c(C#N)c2)CC1 [Example 96, 2′-cyano-2-fluoro-4′-((4-methyl-1,4-diazepan-1-yl)methyl)-[1,1′-biphenyl]-4-carboxamide]"
3,< 0.5 µM,"CN1CCCN(Cc2ccc(-c3ccc(CC(N)C(=O)O)cc3)c(C#N)c2)CC1 (centres unmarked) [Example 100, 2-amino-3-(2′-cyano-4′-((4-methyl-1,4-diazepan-1-yl)methyl)-[1,1′-biphenyl]-4-yl)propanoic acid]"
4,< 0.5 µM,"CC(=O)Nc1ccc(-c2ccc(CN3CCCN(C)CC3)cc2C#N)cn1 [Example 102, N-(5-(2-cyano-4-((4-methyl-1,4-diazepan-1-yl)methyl)phenyl)pyridin-2-yl)acetamide]"
5,< 0.5 µM,"CC(=O)Nc1cc(-c2ccc(CN3CCCN(C)CC3)cc2C#N)ccc1[N+](=O)[O-] [Example 110, N-(2′-cyano-4′-((4-methyl-1,4-diazepan-1-yl)methyl)-4-nitro-[1,1′-biphenyl]-3-yl)acetamide]"
6,< 0.5 µM,"CN1CCCN(Cc2ccc(-c3ccc(N)nc3)c(C#N)c2)CC1 [Example 111, 2-(6-aminopyridin-3-yl)-5-((4-methyl-1,4-diazepan-1-yl)methyl)benzonitrile]"
7,< 2 µM,"CN1CCCN(Cc2ccc(-c3cc[nH]c3)c(C#N)c2)CC1 [Example 117, 5-((4-methyl-1,4-diazepan-1-yl)methyl)-2-(1H-pyrrol-3-yl)benzonitrile]"
8,< 2 µM,"CN1CCCN(Cc2ccc(-c3cnc(N)nc3)c(C#N)c2)CC1 [Example 119, 2-(2-aminopyrimidin-5-yl)-5-((4-methyl-1,4-diazepan-1-yl)methyl)benzonitrile]"
9,< 50 µM,"CN1CCCN(Cc2ccc(-c3cccc4ccccc34)c(C#N)c2)CC1 [Example 125, 5-((4-methyl-1,4-diazepan-1-yl)methyl)-2-(naphthalen-1-yl)benzonitrile]"
10,< 50 µM,"CN1CCCN(Cc2ccc(-c3ccc4ccccc4c3)c(C#N)c2)CC1 [Example 126, 5-((4-methyl-1,4-diazepan-1-yl)methyl)-2-(naphthalen-2-yl)benzonitrile]"
11,< 50 µM,"CN1CCCN(Cc2ccc(-c3ccc(CC(=O)O)cc3)c(C#N)c2)CC1 [Example 127, 2-(2′-cyano-4′-((4-methyl-1,4-diazepan-1-yl)methyl)-[1,1′-biphenyl]-4-yl)acetic acid]"
12,< 50 µM,"CCOC(=O)Cc1ccc(-c2ccc(CN3CCCN(C)CC3)cc2)cc1 [Example 130, ethyl 2-(4′-((4-methyl-1,4-diazepan-1-yl)methyl)-[1,1′-biphenyl]-4-yl)acetate]"

# More lines, now with the values behind:
row,Compound,IC50
1,"CN1CCCN(Cc2ccc(-c3ccc(C(=O)N4CCCN(C)CC4)cc3-c3ccc([N+](=O)[O-])cc3)c(C#N)c2)CC1 [Example 73, 4-((4-methyl-1,4-diazepan-1-yl)methyl)-4′-(4-methyl-1,4-diazepane-1-carbonyl)-4″-nitro-[1,1′:2′,1″-terphenyl]-2-carbonitrile]",< 0.5 µM
2,"COc1cccc(-c2cc(C(=O)N3CCCN(C)CC3)ccc2-c2ccc(CN3CCCN(C)CC3)cc2C#N)c1 [Example 74, 3″-methoxy-4-((4-methyl-1,4-diazepan-1-yl)methyl)-4′-(4-methyl-1,4-diazepane-1-carbonyl)[1,1′:2′,1″-terphenyl]-2-carbonitrile]",< 0.5 µM
3,CN1CCCN(Cc2ccc(-c3ccc(C(=O)N4CCCN(C)CC4)cc3-c3ccc(C(=O)N(C)C)cc3)c(C#N)c2)CC1 [Example 76],< 2 µM
4,"CC(=O)NCCc1ccc(-c2ccc(CN3CCCN(C)CC3)cc2C#N)cc1 [Example 95, N-(2-(2′-cyano-4′-((4-methyl-1,4-diazepan-1-yl)methyl)-[1,1′-biphenyl]-4-yl)ethyl)acetamide]",< 0.5 µM
5,"Cc1cc(S(=O)(=O)N(C)C)ccc1-c1ccc(CN2CCCN(C)CC2)cc1C#N [Example 98, 2′-cyano-N,N,2-trimethyl-4′-((4-methyl-1,4-diazepan-1-yl)methyl)-[1,1′-biphenyl]-4-sulfonamide]",< 0.5 µM
6,"CN1CCCN(Cc2ccc(-c3ccc(/C(N)=N/O)cc3)c(C#N)c2)CC1 [Example 99, (E)-2′-cyano-N′-hydroxy-4′-((4-methyl-1,4-diazepan-1-yl)methyl)-[1,1′-biphenyl]-4-carboximidamide]",< 0.5 µM
7,"CN1CCCN(Cc2ccc(-c3ccc(N)c([N+](=O)[O-])c3)c(C#N)c2)CC1 [Example 101, 4′-amino-4-((4-methyl-1,4-diazepan-1-yl)methyl)-3′-nitro-[1,1′-biphenyl]-2-carbonitrile]",< 0.5 µM
8,"CC(=O)N1CC=C(c2ccc(CN3CCCN(C)CC3)cc2C#N)CC1 [Example 103, 2-(1-acetyl-1,2,3,6-tetrahydropyridin-4-yl)-5-((4-methyl-1,4-diazepan-1-yl)methyl)benzonitrile]",< 0.5 µM
9,"CN1CCCN(Cc2ccc(-c3ccc(C#N)cc3)c(C#N)c2)CC1 [Example 105, 4-((4-methyl-1,4-diazepan-1-yl)methyl)-[1,1′-biphenyl]-2,4′-dicarbonitrile]",< 0.5 µM
10,"CN1CCCN(Cc2ccc(-c3ccc([N+](=O)[O-])cc3)c(C#N)c2)CC1 [Example 106, 4-((4-methyl-1,4-diazepan-1-yl)methyl)-4′-nitro-[1,1′-biphenyl]-2-carbonitrile]",< 0.5 µM
11,"CN1CCCN(Cc2ccc(-c3ccc(O)cc3)c(C#N)c2)CC1 [Example 107, 4′-hydroxy-4-((4-methyl-1,4-diazepan-1-yl)methyl)-[1,1′-biphenyl]-2-carbonitrile]",< 0.5 µM
12,"CN1CCCN(Cc2ccc(-c3ccc(CO)cc3)c(C#N)c2)CC1 [Example 108, 4′-(hydroxymethyl)-4-((4-methyl-1,4-diazepan-1-yl)methyl)-[1,1′-biphenyl]-2-carbonitrile]",< 0.5 µM
13,"CC(=O)NS(=O)(=O)c1ccc(-c2ccc(CN3CCCN(C)CC3)cc2C#N)cc1 [Example 109, N-((2′-cyano-4′-((4-methyl-1,4-diazepan-1-yl)methyl)-[1,1′-biphenyl]-4-yl)sulfonyl)acetamide]",< 0.5 µM
14,"CN1CCCN(Cc2ccc(-c3cn[nH]c3)c(C#N)c2)CC1 [Example 112, 5-((4-methyl-1,4-diazepan-1-yl)methyl)-2-(1H-pyrazol-4-yl)benzonitrile]",< 0.5 µM
15,"CN1CCCN(Cc2ccc(-c3ccc(N)cc3)c(C#N)c2)CC1 [Example 113, 4′-amino-4-((4-methyl-1,4-diazepan-1-yl)methyl)-[1,1′-biphenyl]-2-carbonitrile]",< 2 µM
16,"CN1CCCN(Cc2ccc(-c3ccc(Oc4ccccc4N)cc3)c(C#N)c2)CC1 [Example 115, 4′-(2-aminophenoxy)-4-((4-methyl-1,4-diazepan-1-yl)methyl)-[1,1′-biphenyl]-2-carbonitrile]",< 2 µM
17,"CN1CCCN(Cc2ccc(-c3ccc(-c4nnc(N)s4)cc3)cc2)CC1 [Example 116, 5-(4′-((4-methyl-1,4-diazepan-1-yl)methyl)-[1,1′-biphenyl]-4-yl)-1,3,4-thiadiazol-2-amine]",< 2 µM
18,"Cc1cc(-c2ccc(CN3CCCN(C)CC3)cc2C#N)cnc1N [Example 118, 2-(6-amino-5-methylpyridin-3-yl)-5-((4-methyl-1,4-diazepan-1-yl)methyl)benzonitrile]",< 2 µM
19,"CC(=O)N1CCN(c2ccc(-c3ccc(CN4CCCN(C)CC4)cc3)cn2)CC1 [Example 120, 1-(4-(5-(4-((4-methyl-1,4-diazepan-1-yl)methyl)phenyl)pyridin-2-yl)piperazin-1-yl)ethanone]",< 2 µM
20,"Cc1cc(C#N)ccc1-c1ccc(CN2CCCN(C)CC2)cc1C#N [Example 121, 2′-methyl-4-((4-methyl-1,4-diazepan-1-yl)methyl)-[1,1′-biphenyl]-2,4′-dicarbonitrile]",< 2 µM
21,"CC(=O)NNC(=O)CCc1ccc(-c2ccc(CN3CCCN(C)CC3)cc2)cc1 [Example 122, N′-acetyl-3-(4′-((4-methyl-1,4-diazepan-1-yl)methyl)-[1,1′-biphenyl]-4-yl)propanehydrazide]",< 2 µM
22,"CN1CCCN(Cc2ccc(-c3cncc(N)c3)c(C#N)c2)CC1 [Example 124, 2-(5-aminopyridin-3-yl)-5-((4-methyl-1,4-diazepan-1-yl)methyl)benzonitrile]",< 50 µM
23,"CN1CCCN(Cc2ccc(-c3ccc(-c4nnn[nH]4)cc3)cc2)CC1 [Example 129, 1-((4′-(1H-tetrazol-5-yl)-[1,1′-biphenyl]-4-yl)methyl)-4-methyl-1,4-diazepane]",< 50 µM
24,"CN1CCCN(Cc2ccc(-c3ccc(C(F)(F)F)cc3CO)cc2)CC1 [Example 131, (4′-((4-methyl-1,4-diazepan-1-yl)methyl)-4-(trifluoromethyl)-[1,1′-biphenyl]-2-yl)methanol]",< 50 µM
25,"CN1CCCN(Cc2ccc(-c3ccc(CCC(=O)O)cc3)cc2)CC1 [Example 132, 3-(4′-((4-methyl-1,4-diazepan-1-yl)methyl)-[1,1′-biphenyl]-4-yl)propanoic acid]",< 50 µM
26,"CN1CCCN(Cc2ccc(-c3ccccc3C(N)=O)cc2)CC1 [Example 133, 4′-((4-methyl-1,4-diazepan-1-yl)methyl)-[1,1′-biphenyl]-2-carboxamide]",< 50 µM
